In brackets after ≈: the same amount, converted by molar mass.
Test: Inhibitory concentration against human 2'-phosphodiesterase

- IC50: 34 µg/mL (≈ 60.7 µM)
SMILES: C[C@@H]1c2c(O)cc(O)c3c2[C@H]2[C@H](CC(=O)C4=C(O)c5c(O)cc(O)cc5[C@@H](C3=O)[C@]42Cc2cc(O)cc(=O)o2)[C@H]1O
